Measurements as given in PubChem BioAssay AID720589 (Broad Institute, 2013).

Test system: HepG2 viability, ATP luminescence (CellTiter-Glo), 72 h
Assay: HepG2 hepatoma cell cytotoxicity, dose response, cytotoxicity control, CellTiter-Glo luminescence, cherry-pick, set 3 (AID 720589)

Compound	AC35 [µM]
C[C@]12CC[C@H](O)C[C@H]1CC[C@@H]1[C@@H]2CC[C@]2(C)[C@@H](C3=CC(=O)OC3)CC[C@]12O	2.6
Cc1nc(N)nc(N)c1CCCc1ccc(Cl)c(Cl)c1	0.761
Cc1ccc(S(=O)(=O)Nc2ccc3c(c2)C(=O)N([C@@H](C)CO)C[C@@H](C)[C@@H](CN(C)Cc2ccc(C(=O)Nc4ccccc4N)cc2)O3)cc1	6.33
Cc1noc(C)c1NC(=O)Nc1ccc2c(c1)CC(=O)N([C@H](C)CO)C[C@@H](C)[C@@H](CN(C)Cc1ccc(Cl)c(Cl)c1)O2	7.54
O=c1cc(CN2CCN(Cc3ccccc3)CC2)c2ccc(O)c(O)c2o1	10.3
C/C(=N\NC(=O)c1n[nH]c2c1CCC2)c1cccs1	15.6
C[C@H]1CN([C@@H](C)CO)C(=O)c2cccc(NC(=O)c3ccc(-c4nccs4)cc3)c2O[C@@H]1CN(C)Cc1ccc(C(=O)Nc2ccccc2N)cc1	4.1
Nc1nc(=S)c2ncn([C@@H]3O[C@H](CO)[C@@H](O)[C@H]3O)c2[nH]1	2.56
COc1ccc(NC(=O)N2CCCCN3[C@H](CO)[C@H](c4ccc(C#CCC(C)C)cc4)[C@H]3C2)cc1	8.68
C[C@@H]1CN([C@@H](C)CO)C(=O)c2cc(NS(=O)(=O)c3ccc(F)cc3)ccc2O[C@@H]1CN(C)Cc1ccc(C(=O)Nc2ccccc2N)cc1	0.354
C[C@@H]1CN([C@H](C)CO)C(=O)c2cc(NC(=O)c3ccccc3)ccc2O[C@@H](C)CCCCO[C@H]1CN(C)C(=O)Nc1cccc2ccccc12	1.54
Nc1nc(N)c(-c2cccc(C(F)(F)F)c2)c(Cc2cccc(C(F)(F)F)c2)n1	4.53
C[C@]12CC[C@H]3[C@@H](CC[C@]4(O)C[C@@H](O)CC[C@]34C=O)[C@@]1(O)CC[C@@H]2C1=CC(=O)OC1	0.93
CC(C)CC#Cc1ccc([C@@H]2[C@@H](CO)N3CCCCN(S(=O)(=O)c4ccc(F)cc4)C[C@H]23)cc1	12.7
Nc1cc2c(cc1Br)[nH]c(=O)c1ccccc12	19.2
N=c1ccn2c(n1)O[C@H]1[C@H](O)[C@@H](CO)O[C@H]12	1.37
COc1cccc(-c2cc(NC=O)c3ncc(-c4ccc(C(C)=O)cc4)n3c2)c1	15.5
C[C@H](CO)N1C[C@H](C)[C@H](CN(C)Cc2ccc(C(=O)Nc3ccccc3N)cc2)Oc2ccc(N(C)C)cc2CC1=O	0.19
O=C(Nc1ccccc1F)N1CCCCN2[C@H](CO)[C@H](c3ccc(/C=C/c4ccccc4)cc3)[C@H]2C1	4.41
C[C@H](CO)N1C[C@H](C)[C@H](CN(C)Cc2ccc(Oc3ccccc3)cc2)Oc2ccc(NC(=O)Cn3cnnn3)cc2CC1=O	6.59
CC(=O)OC1CC(OC2C(O)CC(OC3C(O)CC(OC4CCC5(C)C(CCC6C5CC(O)C5(C)C(C7=CC(=O)OC7)CCC65O)C4)OC3C)OC2C)OC(C)C1OC1OC(CO)C(O)C(O)C1O (stereo not drawn)	0.285
COc1cc2c(OC(C)=O)c3c(c(-c4ccc5c(c4)OCO5)c2cc1OC)C(=O)OC3	0.465

Compound	AC35 [µM]
Nc1ccc(-c2cc3ccccc3oc2=O)cc1	2.42
O=C(Nc1cccc(S(=O)(=O)N2CCCC2)c1)c1ccc(Cl)nc1	16
C=C(C(=O)c1ccccc1)C(C(=C)C(=O)c1ccccc1)c1ccc(OC)cc1	8.69
C[C@H](CO)N1C[C@H](C)[C@H](CN(C)CC2CCCCC2)Oc2ccc(NC(=O)CCCCCC(=O)Nc3ccccc3N)cc2CC1=O	0.219
CN(Cc1cnc2nc(N)nc(N)c2n1)c1ccc(C(=O)N[C@@H](CCC(=O)O)C(=O)O)cc1	0.0224
Oc1cccc(-c2nnc(-c3cccc(O)c3)nn2)c1	17.5
CC(=O)OC1CC(OC2C(O)CC(OC3C(O)CC(OC4CCC5(C)C(CCC6C5CCC5(C)C(C7=CC(=O)OC7)CCC65O)C4)OC3C)OC2C)OC(C)C1OC1OC(CO)C(O)C(O)C1O (stereo not drawn)	0.0996
COc1ccc(S(=O)(=O)Nc2cccc3c2O[C@H](CN(C)Cc2ccc(C(=O)Nc4ccccc4N)cc2)[C@H](C)CN([C@@H](C)CO)C3=O)cc1	4.44
COC(=O)C1=C(C)N(Cc2cccc(C(F)(F)F)c2)C(=NCc2ccc(OC)cc2)NC1c1cccc(F)c1 (stereo not drawn)	7.37
COc1cc2c(cc1NC(=O)CN(C)Cc1ccc(OC)c(OC)c1)oc1ccccc12	15.6
O=C1Nc2cc(C(=O)NCCN3CCCCCC3)ccc2S/C1=C\c1ccccc1	10.7
CCCCOc1ccc(NC(=O)C(=O)NCCCn2ccnc2)cc1	13.7
CCOc1cc(/C=N/Nc2cc(C)nc(-n3nc(C)cc3C)n2)ccc1O	1.14
COC(=O)C[C@@H]1CC[C@@H]2[C@@H](COc3ccc(NC(=O)Nc4ccc(C#N)cc4)cc3C(=O)N2C)O1	14.4
COc1ccc(S(=O)(=O)Nc2ccc3c(c2)C(=O)N([C@H](C)CO)C[C@@H](C)[C@@H](CN(C)CC2CCCCC2)OCCCC[C@H](C)O3)cc1	12.2
C[C@H]1CN([C@@H](C)CO)C(=O)c2cc(N(C)C)ccc2O[C@H]1CN(C)Cc1ccc(C(=O)Nc2ccccc2N)cc1	0.298
COc1ccc(NC(=S)N=Nc2c(O)[nH]c3ccccc23)cc1	15.8
C[C@@H]1CN([C@@H](C)CO)C(=O)c2cc(NC(=O)Nc3ccccc3)ccc2O[C@@H]1CN(C)Cc1ccc(C(=O)Nc2ccccc2N)cc1	2.69
O=C1NC(=O)N(Cc2ccccc2)C(=O)/C1=C\C=C\c1ccco1	5.18
CCN1/C(=C/C(C)=C/c2sc3ccccc3[n+]2CC)Sc2ccccc21	0.838
COc1ccc(OC)c(Cc2cnc3nc(N)nc(N)c3c2C)c1	0.0574
C[C@H]1CN([C@@H](C)CO)C(=O)c2cccc(NC(=O)CCCCCC(=O)Nc3ccccc3N)c2O[C@@H]1CN(C)Cc1ccc2c(c1)OCO2	10.5

Compound	AC35 [µM]
O=C1/C(=C\c2ccccc2)CN(C(=O)CCN2CCCCC2)C/C1=C/c1ccccc1	3.95
CCCCc1c(-c2ccccc2OC)ncn1Cc1ccc(C(C)(C)C)cc1	8.48
C[C@@H]1CN([C@@H](C)CO)C(=O)Cc2cc(NS(=O)(=O)c3cccs3)ccc2O[C@H]1CN(C)Cc1ccc(Cl)c(Cl)c1	0.901
C[C@H]1CN([C@@H](C)CO)C(=O)c2cc(N(C)C)ccc2O[C@@H]1CN(C)Cc1ccc(C(=O)Nc2ccccc2N)cc1	0.975
CCCCCCCCNC(C)C(O)c1ccc(SC(C)C)cc1 (stereo not drawn)	12.9
N#CC(=C1C=CC(=NO)C(Cl)=C1)c1ccccc1	2.66
C[C@@H]1CCCCO[C@H](CN(C)Cc2ccc(C(=O)Nc3ccccc3N)cc2)[C@@H](C)CN([C@H](C)CO)C(=O)c2cc(NS(=O)(=O)c3ccc(F)cc3)ccc2O1	10.4
C(=Cc1nc2ccccc2o1)c1ccc2c(c1)OCO2	19.5
C=C1C(=O)C=C[C@]2(C)C[C@@H]3OC(=O)[C@](C)(O)[C@H]3C[C@@H]12	11.8
COc1ccc2cc(C(N)=O)/c(=N\NC(=O)c3ccccc3)oc2c1	17.2
CN1C/C(=C/c2ccsc2)C(=O)/C(=C/c2ccsc2)C1	13.7
COc1ccccc1NC(=O)N1CCCCN2[C@H](CO)[C@H](c3ccc(-c4cccc(C)c4)cc3)[C@H]2C1	12.5
COc1ccc(/C=C/C(=O)c2cc(F)ccc2OC(=O)c2ccccc2OC)cc1OC	13.9
CCCCc1c(Cc2ccccc2)ncn1CCc1ccccc1OC	13.5
C[C@@H]1CN([C@@H](C)CO)C(=O)c2cccc(NS(=O)(=O)c3ccc(Cl)cc3)c2O[C@@H]1CN(C)Cc1ccc(C(=O)Nc2ccccc2N)cc1	2.38
C[C@@H]1CN([C@H](C)CO)C(=O)c2cc(NC(=O)Nc3ccccc3)ccc2O[C@@H]1CN(C)Cc1ccc(C(=O)Nc2ccccc2N)cc1	8.38
Oc1[nH]c2ccc(Br)cc2c1N=NC(=S)N1CCOCC1	2.9
Nc1ccn([C@@H]2O[C@H](CO)[C@@H](O)C2O)c(=O)n1 (stereo partly drawn)	0.477
O=C1NC(=O)N(Cc2ccco2)C(=O)/C1=C/C=C/c1ccco1	10.3
C/C(=C\c1ccccc1)C(=O)N1CCC=CC1=O	4.88
CC12CCC(O)CC1CCC1C2CCC2(C)C(C3=CC(=O)OC3)CCC12O (stereo not drawn)	1.17
CCc1ccc(/C=C2\SC(=S)N(CCCC(=O)N3CCN(C)CC3)C2=O)cc1	8.6

Compound	AC35 [µM]
Oc1c(C(c2ccc(Cl)cc2)N2CCCC2)cc(Cl)c2cccnc12 (stereo not drawn)	17.3
C[C@@H]1CN([C@@H](C)CO)C(=O)c2cccc(NS(=O)(=O)c3ccc(F)cc3)c2O[C@@H]1CN(C)Cc1ccc(C(=O)Nc2ccccc2N)cc1	1.45
CN(C)CC1CCC/C(=C\c2ccc(OC(=O)c3ccc(Cl)cc3)cc2)C1=O (stereo not drawn)	9.84
Cc1cc(C)cc(N2C(=O)NC(=O)/C(=C\C=C\c3ccco3)C2=O)c1	7.27
C[C@@H]1CN([C@@H](C)CO)C(=O)c2cccc(NC(=O)CCCCCC(=O)Nc3ccccc3N)c2O[C@@H]1CN(C)Cc1ccc(Oc2ccccc2)cc1	0.458
COC(=O)c1ccccc1-c1c2ccc(=N)cc-2oc2cc(N)ccc12	10.2
C[C@H]1CN([C@@H](C)CO)C(=O)c2cc(NS(=O)(=O)c3ccc(Cl)cc3)ccc2O[C@H]1CN(C)Cc1ccc(C(=O)Nc2ccccc2N)cc1	7.39
CCN(Cc1ccccc1)c1ccc(/C=N/N=C(N)N)cc1	4.18
Nc1nc(=S)c2[nH]cnc2[nH]1	1.81
O=C(Nc1ccc2c(c1)OCO2)N1C[C@@H]2N[C@H](C1)C2c1ccc(C=Cc2ccccc2)cc1 (stereo partly drawn)	5.42
C[C@@H]1CN([C@@H](C)CO)S(=O)(=O)c2ccc(C#CC(C)(C)O)cc2O[C@H]1CN(C)Cc1ccc(-c2ccccc2)cc1	6.19
C[C@H]1CN([C@@H](C)CO)S(=O)(=O)c2ccc(C#Cc3ccncc3)cc2O[C@@H]1CN(C)C(=O)Nc1ccc2c(c1)OCO2	0.902
CC(=O)Nc1ccc(S(=O)(=O)Nc2ccc(N3CCCCC3)cc2)cc1	19.2
COc1ccccc1C(CCNCc1ccc(N(C)C)cc1)c1ccc(OC(C)C)cc1 (stereo not drawn)	4.74
O=C(NC[C@@H]1N[C@@H](CO)[C@H]1c1ccc(C2=CCCCC2)cc1)c1cccc(F)c1	7.71
Cc1c(CCOC(=O)CC23CC4CC(CC(C)(C4)C2)C3)sc[n+]1CC(=O)c1ccccc1	18.4
CC(=NNc1cc(C)c2ccccc2n1)c1ccccn1	2.66
CC(C)c1oc(=O)cc2c1[C@@H](O)[C@H]1OC(=O)[C@@]3(C)CC[C@@H](O)[C@@]2(C)C13 (stereo partly drawn)	19.7
Cn1ccc2cc(-c3ccc4ncnc(NCc5cccs5)c4c3)ccc21	16.6
CC(=NNc1ccc2ccccc2n1)c1ccccn1	1.53
Cc1cccc(/C=C(\c2nc3ccccc3[nH]2)S(=O)(=O)c2ccccc2)c1	10.7
O=C(Nc1ccc(F)cc1)N1CCCCN2[C@@H](CO)[C@H](c3ccc(C4=CCCCC4)cc3)[C@@H]2C1	8.45
